Source: patent US20260015325A1, “ALKOXY HETEROARYL- CARBOXAMIDE OR THIOAMIDE COMPOUNDS” (SYNGENTA CROP PROTECTION AG, priority 2022, published 2026)

Legend:
Type in all cases: in vivo
[1] = tested on: Myzus persicae (Green Peach Aphid); experiment: Myzus persicae (Green Peach Aphid): feeding/contact activity, sunflower leaf discs; conditions: foliar, 144 h, application rate of 200 ppm, mixed ages on sprayed sunflower leaf discs, 6 days after infestation, read-out: mortality
Description: Example B6: Myzus persicae (Green Peach Aphid): Feeding/Contact Activity
Sunflower leaf discs were placed onto agar in a 24-well microtiter plate and sprayed with aqueous test solutions prepared from 10′000 ppm DMSO stock solutions. After drying, the leaf discs were infested with an aphid population of mixed ages. The samples were assessed for mortality 6 days after infestation.

[2] = tested on: Tetranychus urticae (Two-Spotted Spider Mite); experiment: whole plant or invertebrate; conditions: foliar, 192 h, application rate of 200 ppm, mixed population (mobile stages) on sprayed bean leaf discs, 8 days after infestation, read-out: mortality
Description: Example B11: Tetranychus urticae (Two-Spotted Spider Mite): Feeding/Contact Activity
Bean leaf discs on agar in 24-well microtiter plates were sprayed with aqueous test solutions prepared from 10′000 ppm DMSO stock solutions. After drying the leaf discs were infested with a mite population of mixed ages. The samples were assessed for mortality on mixed population (mobile stages) 8 days after infestation.

[3] = tested on: Myzus persicae (Green Peach Aphid); experiment: Myzus persicae (Green Peach Aphid): intrinsic activity, sucrose solution; conditions: 120 h, test rate of 12 ppm, intrinsic, mixed with sucrose solution under Parafilm, 5 days after infestation, read-out: mortality
Source text: Example B8: Myzus persicae (Green Peach Aphid). Intrinsic Activity
Test compounds prepared from 10′000 ppm DMSO stock solutions were applied by pipette into 24-well microtiter plates and mixed with sucrose solution. The plates were closed with a stretched Parafilm. A plastic stencil with 24 holes was placed onto the plate and infested pea seedlings were placed directly on the Parafilm. The infested plate was closed with a gel blotting paper and another plastic stencil and then turned upside down. The samples were assessed for mortality 5 days after infestation.

| Structure (SMILES) | mortality at 200 ppm [1] [%] | mortality at 200 ppm [2] [%] | mortality at 12 ppm [3] [%] |
| --- | --- | --- | --- |
| CCN1OC[C@@H](NC(=O)c2cc(OC[C@H](C)N(COC)S(=O)(=O)C(F)(F)F)ncc2C)C1=O [Compound P-78, N-[(4R)-2-ethyl-3-oxo-isoxazolidin-4-yl]-2-[(2S)-2-[methoxymethyl(trifluoromethylsulfonyl)amino]propoxy]-5-methyl-pyridine-4-carboxamide] | ≥ 80 | ≥ 80 |  |
| Cc1ncc(OC[C@H](C)NS(=O)(=O)C(F)(F)F)cc1C(=O)NC1CC(F)(F)C1 [Compound P-37, N-(3,3-difluorocyclobutyl)-2-methyl-5-[(2S)-2-(trifluoromethylsulfonylamino)propoxy]pyridine-3-carboxamide] |  | ≥ 80 |  |
| Cc1cnc(OC[C@H](C)NS(=O)(=O)C(F)(F)F)cc1C(=O)NCc1ccccc1 [Compound P-77, N-benzyl-5-methyl-2-[(2S)-2-(trifluoromethylsulfonylamino)propoxy]pyridine-4-carboxamide] |  | ≥ 80 |  |
| Cc1ncc(OC[C@H](C)NS(=O)(=O)C(F)(F)F)cc1C(=O)NC(C)C [Compound P-34, N-isopropyl-2-methyl-5-[(2S)-2-(trifluoromethylsulfonylamino)propoxy]pyridine-3-carboxamide] | ≥ 80 |  |  |
| Cc1ncc(OC[C@H](C)NS(=O)(=O)C(F)(F)F)cc1C(=O)N(C)C1CC1 [Compound P-40, N-cyclopropyl-N,2-dimethyl-5-[(2S)-2-(trifluoromethylsulfonylamino)propoxy]pyridine-3-carboxamide] | ≥ 80 |  |  |
| CC(NC(=O)c1cc(OC[C@H](C)NS(=O)(=O)C(F)(F)F)cnc1Cl)C1CC1 (stereo partly drawn) [Compound P-45, 2-chloro-N-(1-cyclopropylethyl)-5-[(2S)-2-(trifluoromethylsulfonylamino)propoxy]pyridine-3-carboxamide] | ≥ 80 | ≥ 80 | ≥ 80 |
| C[C@@H](COc1cnc(Cl)c(C(=O)Nc2ncc(Cl)cc2F)c1)NS(=O)(=O)C(F)(F)F [Compound P-19, 2-chloro-N-(5-chloro-3-fluoro-2-pyridyl)-5-[(2S)-2-(trifluoromethylsulfonylamino)propoxy]pyridine-3-carboxamide] |  |  | ≥ 80 |
| C[C@@H](COc1cnc(Cl)c(C(=O)Nc2ccc(S(C)(=O)=O)cc2F)c1)NS(=O)(=O)C(F)(F)F [Compound P-24, 2-chloro-N-(2-fluoro-4-methylsulfonyl-phenyl)-5-[(2S)-2-(trifluoromethylsulfonylamino)propoxy]pyridine-3-carboxamide] |  | ≥ 80 |  |
| CCN1OC[C@H](NC(=O)c2cc(OC[C@H](C)NS(=O)(=O)C(F)(F)F)cnc2Cl)C1=O [Compound P-49, 2-chloro-N-[(4S)-2-ethyl-3-oxo-isoxazolidin-4-yl]-5-[(2S)-2-(trifluoromethylsulfonylamino)propoxy]pyridine-3-carboxamide] | ≥ 80 | ≥ 80 |  |
| C[C@@H](COc1cnc(Cl)c(C(=O)NCC(=O)NCC2CC2)c1)NS(=O)(=O)C(F)(F)F [Compound P-53, 2-chloro-N-[2-(cyclopropylmethylamino)-2-oxo-ethyl]-5-[(2S)-2-(trifluoromethylsulfonylamino)propoxy]pyridine-3-carboxamide] | ≥ 80 |  |  |
| Cc1ncc(OC[C@H](C)NS(=O)(=O)C(F)(F)F)cc1C(=O)NCC(F)F [Compound P-39, N-(2,2-difluoroethyl)-2-methyl-5-[(2S)-2-(trifluoromethylsulfonylamino)propoxy]pyridine-3-carboxamide] |  | ≥ 80 |  |
| CCNC(=O)c1cc(OC[C@H](C)NS(=O)(=O)C(F)(F)F)cnc1C [Compound P-36, N-ethyl-2-methyl-5-[(2S)-2-(trifluoromethylsulfonylamino)propoxy]pyridine-3-carboxamide] | ≥ 80 |  |  |
| Cc1cnc(OC[C@H](C)NS(=O)(=O)C(F)(F)F)cc1C(=O)NC(C)c1cccnc1 (stereo partly drawn) [Compound P-76, 5-methyl-N-[1-(3-pyridyl)ethyl]-2-[(2S)-2-(trifluoromethylsulfonylamino)propoxy]pyridine-4-carboxamide] | ≥ 80 |  |  |
| COCN([C@@H](C)COc1cc(C(=O)NC2(C#N)CC2)c(C)cn1)S(=O)(=O)C(F)(F)F [Compound P-79, N-(1-cyanocyclopropyl)-2-[(2S)-2-[methoxymethyl(trifluoromethylsulfonyl)amino]propoxy]-5-methyl-pyridine-4-carboxamide] |  | ≥ 80 |  |
| C[C@@H](COc1cnc(Cl)c(C(=O)NC2(C)CCOC2)c1)NS(=O)(=O)C(F)(F)F (stereo partly drawn) [Compound P-51, 2-chloro-N-(3-methyltetrahydrofuran-3-yl)-5-[(2S)-2-(trifluoromethylsulfonylamino)propoxy]pyridine-3-carboxamide] |  | ≥ 80 |  |
| Cc1cnc(OC[C@H](C)NS(=O)(=O)C(F)(F)F)cc1C(=O)NCc1ccc2c(c1)COC2 [Compound P-69, N-(1,3-dihydroisobenzofuran-5-ylmethyl)-5-methyl-2-[(2S)-2-(trifluoromethylsulfonylamino)propoxy]pyridine-4-carboxamide] | ≥ 80 |  |  |
| Cc1cnc(OC[C@H](C)NS(=O)(=O)C(F)(F)F)cc1C(=O)NC(C)C1CC1 (stereo partly drawn) [Compound P-73, N-(1-cyclopropylethyl)-5-methyl-2-[(2S)-2-(trifluoromethylsulfonylamino)propoxy]pyridine-4-carboxamide] | ≥ 80 |  |  |
| COCN([C@@H](C)COc1cc(C(=O)NC2CC2)c(Br)cn1)S(=O)(=O)C(F)(F)F [Compound P-81, 5-bromo-N-cyclopropyl-2-[(2S)-2-[methoxymethyl(trifluoromethylsulfonyl)amino]propoxy]pyridine-4-carboxamide] |  |  | ≥ 80 |
| C[C@@H](COc1cnc(Cl)c(C(=O)NCc2ccccc2)c1)NS(=O)(=O)C(F)(F)F [Compound P-44, N-benzyl-2-chloro-5-[(2S)-2-(trifluoromethylsulfonylamino)propoxy]pyridine-3-carboxamide] |  | ≥ 80 |  |
| Cc1ncc(OC[C@H](C)NS(=O)(=O)C(F)(F)F)cc1C(=O)NCc1ncccc1Cl [Compound P-32, N-[(3-chloro-2-pyridyl)methyl]-2-methyl-5-[(2S)-2-(trifluoromethylsulfonylamino)propoxy]pyridine-3-carboxamide] | ≥ 80 | ≥ 80 |  |
| C[C@@H](COc1cnc(Cl)c(C(=O)N(C)CC(F)F)c1)NS(=O)(=O)C(F)(F)F [Compound P-59, 2-chloro-N-(2,2-difluoroethyl)-N-methyl-5-[(2S)-2-(trifluoromethylsulfonylamino)propoxy]pyridine-3-carboxamide] | ≥ 80 |  |  |
| Cc1cnc(OC[C@H](C)NS(=O)(=O)C(F)(F)F)cc1C(=O)N(C)C1(C#N)CC1 [Compound P-67, N-(1-cyanocyclopropyl)-N,5-dimethyl-2-[(2S)-2-(trifluoromethylsulfonylamino)propoxy]pyridine-4-carboxamide] | ≥ 80 |  |  |
| C[C@@H](COc1cnc(Cl)c(C(=O)NCC(F)F)c1)NS(=O)(=O)C(F)(F)F [Compound P-55, 2-chloro-N-(2,2-difluoroethyl)-5-[(2S)-2-(trifluoromethylsulfonylamino)propoxy]pyridine-3-carboxamide] | ≥ 80 |  | ≥ 80 |
| CCc1ncsc1NC(=O)c1cc(OC[C@H](C)NS(=O)(=O)C(F)(F)F)ncc1C [Compound P-68, N-(4-ethylthiazol-5-yl)-5-methyl-2-[(2S)-2-(trifluoromethylsulfonylamino)propoxy]pyridine-4-carboxamide] | ≥ 80 |  |  |
| Cc1cnc(OC[C@H](C)NS(=O)(=O)C(F)(F)F)cc1C(=O)Nc1cccc(C#N)c1F [Compound P-75, N-(3-cyano-2-fluoro-phenyl)-5-methyl-2-[(2S)-2-(trifluoromethylsulfonylamino)propoxy]pyridine-4-carboxamide] | ≥ 80 |  |  |
| Cc1ncc(OC[C@H](C)NS(=O)(=O)C(F)(F)F)cc1C(=O)Nc1ccc(F)cc1F [Compound P-33, N-(2,4-difluorophenyl)-2-methyl-5-[(2S)-2-(trifluoromethylsulfonylamino)propoxy]pyridine-3-carboxamide] |  | ≥ 80 |  |
| C[C@@H](COc1cnc(Cl)c(C(=O)Nc2ncc(C#N)cc2F)c1)NS(=O)(=O)C(F)(F)F [Compound P-18, 2-chloro-N-(5-cyano-3-fluoro-2-pyridyl)-5-[(2S)-2-(trifluoromethylsulfonylamino)propoxy]pyridine-3-carboxamide] |  | ≥ 80 |  |
| COCCC#CC(C)(C)NC(=O)c1cc(OC[C@H](C)NS(=O)(=O)C(F)(F)F)ncc1C [Compound P-72, N-(5-methoxy-1,1-dimethyl-pent-2-ynyl)-5-methyl-2-[(2S)-2-(trifluoromethylsulfonylamino)propoxy]pyridine-4-carboxamide] | ≥ 80 |  |  |
| Cc1cnc(OC[C@H](C)NS(=O)(=O)C(F)(F)F)cc1C(=O)NCC(F)(F)F [Compound P-80, 5-methyl-N-(2,2,2-trifluoroethyl)-2-[(2S)-2-(trifluoromethylsulfonylamino)propoxy]pyridine-4-carboxamide] |  | ≥ 80 |  |
